Assays:
[1] = test system: AMPA induced [3H]GABA release from cultured cortical neurons; assay: Potentiation of AMPA induced [3H]GABA release from cultured cortical neurons; assay type: cell-based, mouse; details: 5 μM AMPA; expressed relative to potentiation induced by 30 μM cyclothiazide; FIGS. 1 and 2
Procedure: Neurons which express receptors for excitatory amino acids can be depolarized by such compounds and this depolariztion will ultimately lead to a release of transmitter substance from the neurons. Cultured neurons obtained from 16-day-old mouse embryo cortex are mainly GABAergic and express all types of excitatory amino acid receptors. This means that they can be stimulated by high potassium (55 mM) or by the excitatory amino acids NMDA (20 μM), AMPA (5 μM) and kainate (5 μM) to release their neurotransmitter GABA.
^3H-GABA may be used to label the GABA transmitter pool in the neurons and the release of ^3H-GABA from the neurons may be used as a simple functional model for studies of the effects of excitatory amino acid receptor agonists, antagonists, and modulators.
Cerebral cortices of 15–16 day-old NMRI mouse embryos are chopped in 0.4×0.4 mm cubes and the tissue is dissociated by mild trypsinization (0.1% (wt/vol) trypsin, 37° C., 10 min). Subsequently the cell suspension (3 mill/ml) is inoculated into poly-L-lysine-coated 30 mm Petri dishes (3 ml/dish) containing a slightly modified DMEM (24.5 mM KCl) supplemented with p-aminobenzoate (7 μM), insulin (100 mU/L) and 10% (vol/vol) horse serum. Cells are maintained in culture for 5–7 days with the addition of the antimitotic agent cytosine arbinoside (5 μM) from day 2 in vitro to prevent glial proliferation. […]

NMRI mice = assay: Passive avoidance (associative memory); assay type: in vivo, mouse; details: mice pre-treated before training, test after 24 hours; different concentrations; FIG. 17
Procedure: PURPOSE: To test the pharmacological effect of compounds on associative memory.
PRINCIPLE: A Mouse is placed in a light compartment with access to a dark compartment. If it enter the dark compartment it will receive a foot-shock (0.4 mA). After a delay (24 hours) the association to risk an unpleasant foot-shock by re-entering the dark compartment is tested.
ANIMALS: Female NMRI mice (Bomholdtgaard, DK) weighing 22–25 g were used. The mice were kept in Macrolon plastic cages with free access to food (Altromin, DK) and tap water. The mice were habituated to the laboratory for at least 3 days before testing (light on 7:00am/light off 7:00 pm).
EQUIPMENT: The passive avoidance apparatus consisted of a modular test chambers (ENV-307, MED-Associates, US). The light and the dark compartment consisted of plexiglas boxes of equal size (15×17×13 cm; width×length×height) with metal grid floors. A sliding guillotine door was located at the aperture (4×4 cm) connecting the two compartments. […]
[…]: Entry latency (sec) to re-enter the dark compartment was measured. […]
Training: One mouse is placed in the light compartment and the guillotine door to the dark compartment is opened. […] Test: After a delay (24 hours) the mouse will re-enter the light compartment and time latency to enter the dark compartment is measured with a time limit at 2 minutes. […]

| SMILES | potentiation of AMPA induced [3H]GABA release [1] | entry latency to re-enter the dark compartment (memory) (NMRI mice) |
| --- | --- | --- |
| Cc1cc2c(cc1S(=O)(=O)N1CCCCC1)S(=O)(=O)NC(C1CCCC1)N2 (stereo not drawn) [Compound 114, 3-Cyclopentyl-6-methyl-7-piperidinosulfonyl-1,2,3,4-tetrahydro-1,2,4-benzothia-diazine-1,1-dioxide] | potentiation | – |
| CN1CCN(S(=O)(=O)c2ccc3c(c2)S(=O)(=O)NC(C2CCCCC2)N3)CC1 (stereo not drawn) [Compound 61, 3-Cyclohexyl-7-(4′-methylpiperazino)sulfonyl-1,2,3,4-tetrahydro-1,2,4-benzothiadiazine-1,1-dioxide] | – | memory enhancing effect |
| Cc1cc2c(cc1S(=O)(=O)N1CCOCC1)S(=O)(=O)NC(C1CCCCC1)N2 (stereo not drawn) [Compound 115, 3-Cyclohexyl-6-methyl-7-morpholinosulfonyl-1,2,3,4-tetrahydro-1,2,4-benzothiadiazine-1,1-dioxide] | potentiation | – |
